Paper PMC7000209, “Novel small molecule modulators of quorum sensing in avian pathogenic Escherichia coli (APEC)” (Virulence, 2018)

Key:
AI-2 activity of APEC O2 = assay: AI-2 bioluminescence indicator assay, APEC O2; format: cell-based, avian pathogenic E. coli (APEC) O2; settings: Escherichia coli, read-out: % Inhibtion of AI-2 activity
Protocol: (§1) Overnight culture of APEC O78 prepared in LB broth was adjusted to an optical density (OD600) of 0.05 (7 × 10^7 CFU/mL) in fresh LB broth. One hundred micro-liters of the culture was transferred to a 96-well plate and 1µL (100 μM final concentration) of the compound was added to each well using a pin tool. Chloramphenicol (40 μg/mL) or kanamycin (30 μg/mL) and 1μL of 100% DMSO were included as controls in each plate. Plates were incubated at 37 °C for 10 h with shaking in a Sunrise^TM Tecan plate reader (Tecan Group Ltd. San Jose, CA, USA) and the growth was kinetically monitored every 30 min by measuring the OD at 600 nm.
(§2) The AI-2 bioluminescence assay was performed as described previously. Briefly, APEC O78 cultures grown in the presence of SMs (see above) were centrifuged at 5000 × g for 10 min, and cell-free culture supernatants were prepared by using a 0.22 µm filter 96 well plate (Millipore). The bioluminescence reporter V. harveyi BB170 (AI-1^+ and AI-2^-) was grown overnight in AB medium at 30 °C aerobically with shaking. The overnight culture was diluted to 1:5000 in fresh AB medium and incubated at 30 °C for 3 h. Following incubation, 180 μL of the V. harveyi BB170 culture was distributed into each well of a 96-well plate and mixed with 20 µL of the cell free culture supernatant, the plate was then incubated at 30 °C for 2.5 h in the dark and the bioluminescence was measured using in vivo imaging system (IVIS Lumina Series III, PerkinElmer, USA). […] Cell-free culture supernatants collected from overnight cultures of V. harveyi BB120 (AI-1^+andAI-2^+) and E. coli DH5α (a strain lacks AI-2) were used as controls. Bioluminescence of SMs treated culture supernatants were compared to DMSO treated control. The Z-score was calculated to evaluate the quality of the bioluminescence screening. Four independent experiments were conducted for the 69 compounds that inhibited ≥ 75% of the AI-2 mediated bioluminescence and the average inhibition percentage was calculated.
(§3) The selected compounds were also tested for inhibition of AI-2 production in other APEC serotypes such as O1, O2, O8, O15, O18, O35, O109, and O115 that are commonly implicated in colibacillosis using the same procedure described above.

AI-2 activity of O109 = assay: AI-2 bioluminescence indicator assay, APEC O109; format: cell-based, avian pathogenic E. coli (APEC) O109; settings: Escherichia coli, read-out: % Inhibtion of AI-2 activity, serotype O109, bioluminescence vs DMSO treated control
Protocol: as §1, §2, §3

[1] = test system: AI-2 activity of APEC O78; assay: AI-2 bioluminescence indicator assay (V. harveyi BB170), APEC O78 supernatant; format: cell-based, avian pathogenic E. coli (APEC) O78; settings: Escherichia coli, read-out: % Inhibtion of AI-2 activity
Protocol: as §1, §2

AI-2 activity of O18 = assay: AI-2 bioluminescence indicator assay, APEC O18; format: cell-based, avian pathogenic E. coli (APEC) O18; settings: Escherichia coli, read-out: % Inhibtion of AI-2 activity, serotype O18, bioluminescence vs DMSO treated control
Protocol: as §1, §2, §3

[2] = test system: APEC O78 biofilm formation; assay: Biofilm assay (crystal violet); format: cell-based, avian pathogenic E. coli (APEC) O78; settings: 48 h; for inhibition at 100 µM: Escherichia coli, crystal violet OD550 vs DMSO control, read-out: reduction of APEC O78 biofilm formation
Protocol: Effect of the selected AI-2 inhibitors on biofilm formation was assessed using the crystal violet (CV) assay. Briefly, APEC O78 was grown in LB broth in the presence of 100 µM of each compound in a 96-well plate at 37 °C for 10 h. The culture was then diluted 1:100 in fresh LB broth. The biofilm assay was performed in a 96-well plate containing 150 µL of the diluted culture and 100 µM of each compound. The plate was then incubated aerobically without shaking at 37 °C for 48 h, washed twice with PBS to remove the non-adherent cells and stained with 200 µL of 0.1% CV in water at room temperature for 10 min. The plate was washed with PBS and biofilm was quantified by measuring the absorbance at 550 nm after solubilizing the CV in 200 μL of 30% acetic acid in water for 15 min.

AI-2 activity of APEC O1 = assay: AI-2 bioluminescence indicator assay, APEC O1; format: cell-based, avian pathogenic E. coli (APEC) O1; settings: Escherichia coli, read-out: % Inhibtion of AI-2 activity, serotype O1, bioluminescence vs DMSO treated control
Protocol: as §1, §2, §3

APEC O2 in HD-11 cells = assay: Intracellular survival assay, APEC O2 in HD-11 cells; format: cell-based, avian pathogenic E. coli (APEC) O2; settings: MOI 100, 100 µM, 6 h; for reduction of intracellular survival of APEC O2: vs DMSO treated control
Protocol: The effect of the selected AI-2 inhibitors on the survival of APEC in macrophage cells was tested as described before. Briefly, HD-11 cells was grown as described above and infected with 1 × 10^7 CFU (MOI = 100) of mid-log phase APEC strains (O78, O1 and O2) at 37 °C for 1 h. Cells were washed with PBS and treated with gentamicin (150 μg/mL) for 1 h to kill the extracellular bacteria. The cells were then washed and incubated with 100 µM of each compound in media containing 10 μg/mL of gentamicin at 37 °C for 6 h. Following treatment, cells were washed, lysed with 0.1% Triton X-100 for 5 min, ten-fold serially diluted in PBS and plated on LB agar plates to determine CFUs. Cells treated with chloramphenicol (40 μg/mL) and 1 μL of 100% DMSO were used as controls. The experiment was conducted two times with four replicates in each experiment. Intracellular survival was expressed as the log change of APEC CFUs in the AI-2 inhibitors treated cells.

Cc1ccccc1N1CCN(C2CCCN(C(=O)c3ccc(F)c(Cl)c3)C2)CC1 (centres unmarked) [C2, 1-[1-(3-chloro-4-fluorobenzoyl)-3-piperidinyl]-4-(2-methylphenyl)piperazine]
inhibition at 100 µM (AI-2 activity of APEC O2): 96%
inhibition at 100 µM (AI-2 activity of O109): 57%
inhibition at 100 µM [1]: 92%
inhibition at 100 µM (AI-2 activity of O18): 43%
inhibition at 100 µM [2]: 52 to 58%
inhibition at 100 µM (AI-2 activity of APEC O1): 64%

COCCN1CCC(CN(Cc2ccncc2)Cc2ccccc2Cl)CC1 [C1, (2-chlorobenzyl){[1-(2-methoxyethyl)-4-piperidinyl]methyl}(4-pyridinylmethyl)amine]
inhibition at 100 µM (AI-2 activity of APEC O2): 94%
inhibition at 100 µM (AI-2 activity of O109): 65%
inhibition at 100 µM [1]: 84%
inhibition at 100 µM (AI-2 activity of O18): 37%
effect on APEC O78 biofilm formation (in words) ([2]; 100 µM, vs DMSO treated control): no effect
inhibition at 100 µM (AI-2 activity of APEC O1): ≥ 75%

NC(=O)c1ccccc1Nc1cccc(C(F)(F)F)c1 [C3, 2-{[3-(trifluoromethyl)phenyl]amino}benzamide]
inhibition at 100 µM (AI-2 activity of APEC O2): 54%
inhibition at 100 µM (AI-2 activity of O109): 0%
inhibition at 100 µM [1]: 78%
inhibition at 100 µM (AI-2 activity of O18): 8%
inhibition at 100 µM [2]: 63 to 66%
inhibition at 100 µM (AI-2 activity of APEC O1): 65%

Fc1ccc(CN2CCCN(Cc3nc(-c4ccc(C(F)(F)F)cc4)no3)CC2)cc1 [C9, 1-(4-fluorobenzyl)-4-({3-[4-(trifluoromethyl)phenyl]-1,2,4-oxadiazol-5-yl}methyl)-1,4-diazepane]
inhibition at 100 µM (AI-2 activity of APEC O2): 51%
inhibition at 100 µM (AI-2 activity of O109): 66%
inhibition at 100 µM [1]: 79%
inhibition at 100 µM (AI-2 activity of O18): 14%
inhibition at 100 µM [2]: 52 to 58%
clearance of intracellular APEC O2 (APEC O2 in HD-11 cells): 100%
reduction of intracellular survival of APEC O2 (APEC O2 in HD-11 cells): ~ 3.3 logs
inhibition at 100 µM (AI-2 activity of APEC O1): 19%

O=C(CCN1CCN(c2ccccc2F)CC1)Nc1ccc(Br)cc1 [C7, N-(4-bromophenyl)-3-[4-(2-fluorophenyl)-1-piperazinyl]propanamide]
inhibition at 100 µM (AI-2 activity of APEC O2): 83%
inhibition at 100 µM (AI-2 activity of O109): 67%
inhibition at 100 µM [1]: 94%
inhibition at 100 µM (AI-2 activity of O18): 48%
inhibition at 100 µM [2]: 63 to 66%
reduction of intracellular survival of APEC O2 (APEC O2 in HD-11 cells): up to 0.8 logs
inhibition at 100 µM (AI-2 activity of APEC O1): 47%

OCCC1CN(C2CCN(c3ccccc3)CC2)CCN1CCCc1ccccc1 (centres unmarked) [C10, 2-[4-(1-phenyl-4-piperidinyl)-1-(3-phenylpropyl)-2-piperazinyl]ethanol]
inhibition at 100 µM (AI-2 activity of APEC O2): 89%
inhibition at 100 µM (AI-2 activity of O109): 57%
inhibition at 100 µM [1]: 84%
inhibition at 100 µM (AI-2 activity of O18): 35%
inhibition at 100 µM [2]: 52 to 58%
clearance of intracellular APEC O2 (APEC O2 in HD-11 cells): 100%
reduction of intracellular survival of APEC O2 (APEC O2 in HD-11 cells): ~ 3.3 logs
inhibition at 100 µM (AI-2 activity of APEC O1): 64%

O=[N+]([O-])c1cccc(S(=O)(=O)Nc2ccc(Br)cc2)c1 [C6, N-(4-bromophenyl)-3-nit robenzenesulfonamide]
inhibition at 100 µM (AI-2 activity of APEC O2): 93%
inhibition at 100 µM (AI-2 activity of O109): 60%
inhibition at 100 µM [1]: 92%
inhibition at 100 µM (AI-2 activity of O18): ≥ 75%
inhibition at 100 µM [2]: 63 to 66%
clearance of intracellular APEC O2 (APEC O2 in HD-11 cells): 100%
reduction of intracellular survival of APEC O2 (APEC O2 in HD-11 cells): ~ 3.3 logs
inhibition at 100 µM (AI-2 activity of APEC O1): ≥ 75%

Cc1ccc(CN2CCN(CCCc3ccccc3)CC2)cc1 [C5, 1-(4-methylbenzyl)-4-(3-phenylpropyl)piperazine]
inhibition at 100 µM (AI-2 activity of APEC O2): 89%
inhibition at 100 µM (AI-2 activity of O109): 69%
inhibition at 100 µM [1]: 83%
inhibition at 100 µM (AI-2 activity of O18): 61%
inhibition at 100 µM [2]: 63 to 66%
clearance of intracellular APEC O2 (APEC O2 in HD-11 cells): 100%
reduction of intracellular survival of APEC O2 (APEC O2 in HD-11 cells): ~ 3.3 logs
inhibition at 100 µM (AI-2 activity of APEC O1): 46%

CS/C(N)=N/N=C/c1cc(C)ccc1O [C4, methyl N'-(2-hydroxy-5-methylbenzylidene)h ydrazonothiocarbamate]
inhibition at 100 µM (AI-2 activity of APEC O2): 76%
inhibition at 100 µM (AI-2 activity of O109): 67%
inhibition at 100 µM [1]: 75%
inhibition at 100 µM (AI-2 activity of O18): 54%
inhibition at 100 µM [2]: 63 to 66%
reduction of intracellular survival of APEC O2 (APEC O2 in HD-11 cells): up to 0.8 logs
inhibition at 100 µM (AI-2 activity of APEC O1): 63%

CCc1ccccc1Nc1nc(-c2c(C)nc3ccccn23)cs1 [C8, N-(2-ethylphenyl)-4-(2-methylimidazo[1,2-a]pyridin-3-yl)-1,3-thiazol-2-amine]
inhibition at 100 µM (AI-2 activity of APEC O2): 94%
inhibition at 100 µM (AI-2 activity of O109): ≥ 75%
inhibition at 100 µM [1]: 98%
inhibition at 100 µM (AI-2 activity of O18): 54%
inhibition at 100 µM [2]: 52 to 58%
reduction of intracellular survival of APEC O2 (APEC O2 in HD-11 cells): up to 0.8 logs
inhibition at 100 µM (AI-2 activity of APEC O1): 41%
